Results published in patent US10428080B2, “TBK/IKK inhibitor compounds and uses thereof” (Merck Patent GmbH, priority 2015, dated 2019).
Where a name gives a salt, the structure may show the parent alone.

Target: T1, TBK1 (Homo sapiens, UniProt Q9UHD2)
T1 sequence (Q9UHD2 1-729): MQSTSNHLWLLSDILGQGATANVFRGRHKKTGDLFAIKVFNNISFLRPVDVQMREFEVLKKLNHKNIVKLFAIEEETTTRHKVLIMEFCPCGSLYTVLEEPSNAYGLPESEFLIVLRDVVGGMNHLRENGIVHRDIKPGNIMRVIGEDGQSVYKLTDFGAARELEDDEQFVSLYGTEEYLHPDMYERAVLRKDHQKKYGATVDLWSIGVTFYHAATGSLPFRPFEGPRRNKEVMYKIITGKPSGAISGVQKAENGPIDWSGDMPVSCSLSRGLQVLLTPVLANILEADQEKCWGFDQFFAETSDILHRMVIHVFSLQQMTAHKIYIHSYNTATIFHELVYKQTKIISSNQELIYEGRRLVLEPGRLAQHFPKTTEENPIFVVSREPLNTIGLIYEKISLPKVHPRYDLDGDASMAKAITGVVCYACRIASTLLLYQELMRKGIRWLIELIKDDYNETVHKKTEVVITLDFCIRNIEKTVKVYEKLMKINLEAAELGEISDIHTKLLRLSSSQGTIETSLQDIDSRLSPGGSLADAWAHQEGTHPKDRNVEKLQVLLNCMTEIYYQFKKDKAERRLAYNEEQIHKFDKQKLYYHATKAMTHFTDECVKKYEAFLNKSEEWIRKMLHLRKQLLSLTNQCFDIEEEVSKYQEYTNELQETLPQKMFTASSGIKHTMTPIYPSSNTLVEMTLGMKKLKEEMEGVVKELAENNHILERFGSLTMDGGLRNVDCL
Assay: TBK Biochemical Assay
Conditions: read-out: TBK1 IC50
Description: Example 482: TBK Biochemical Assay
(§1) Test compounds were transferred into Labcyte polypropylene 384 well plates (P055-25) and diluted to 3 mM using DMSO. 3 mM test compounds were dispensed using Labcyte ECHO dose response module into Greiner 784075 plates (columns 3-12 and 13-22, 10 point 1:4) so that high concentration was 30 uM final. 100 uM of a reference compound (1 uM final high concentration). Backfilling was performed if necessary so that all wells contain 1% DMSO final: […]
(§2) add 75 nl DMSO/well into columns 1, 2 and 24 using Labcyte Echo. add 75 nl 1.0 mM staurosporine/well into column 23 using Labcyte Echo ([…]) add 4.5 ul enzyme/well using multidrop dispenser add 3 ul substrate/well using multidrop dispenser incubate at 25° C. in Heidolph incubator for 90 min. add 7.5 ul 2× stop buffer using multidrop dispenser read on labchip ez reader II using TBK1.job
(§3) Raw data files were opened in the Caliper LabChip Reviewer program (Version 3.0.265.0 SP2) and peak assignments were adjusted to reflect “substrate first” with the software's post-run analysis options. A spline-fit baseline was applied using the software's analysis algorithm.

Row | Compound | IC50
1 | CN(C)C(=O)c1ccc(-c2cc3nccc(-c4cc(F)c(OC5CCOC6(CC6)C5)c(C#N)c4)c3o2)cc1 (stereo not drawn) [Compound 288, 4-[7-(3-cyano-5-fluoro-4-[4-oxaspiro[2.5]octan-7-yloxy]phenyl)furo[3,2-b]pyridin-2-yl]-N,N-dimethylbenzamide hydrochloride] | > 5 µM
2 | CC1COCC(C)C1Oc1c(F)cc(-c2ccnc3cc(-c4ccc(C(=O)N(C)C)cc4)oc23)cc1C#N (stereo not drawn) [Compound 289, 4-(7-[3-cyano-4-[(3,5-dimethyloxan-4-yl)oxy]-5-fluorophenyl]furo[3,2-b]pyridin-2-yl)-N,N-dimethylbenzamide] | > 5 µM
3 | COc1cc(C(=O)N(C)C)ccc1-c1cc2nccc(-c3cc(F)c(OC4CCOC5(CC5)C4)c(C#N)c3)c2o1 (stereo not drawn) [Compound 293, 4-[7-(3-cyano-5-fluoro-4-[4-oxaspiro[2.5]octan-7-yloxy]phenyl)furo[3,2-b]pyridin-2-yl]-3-methoxy-N,N-dimethylbenzamide] | > 5 µM
4 | COc1cc(C(=O)N(C)C)ccc1-c1cc2nccc(-c3cc(F)c(OC4C(C)COCC4C)c(C#N)c3)c2o1 (stereo not drawn) [Compound 294, 4-(7-[3-cyano-4-[(3,5-dimethyloxan-4-yl)oxy]-5-fluorophenyl]furo[3,2-b]pyridin-2-yl)-3-methoxy-N,N-dimethylbenzamide] | > 5 µM
5 | CN(C)C(=O)c1ccc(-c2cc3ncc(C4CC4)c(-c4ccc(NC5CCOCC5)c(C#N)c4)c3o2)c(F)c1 [Compound 309, 4-(7-[3-cyano-4-[(oxan-4-yl)amino]phenyl]-6-cyclopropylfuro[3,2-b]pyridin-2-yl)-3-fluoro-N,N-dimethylbenzamide] | > 5 µM
6 | CN(C)C(=O)c1ccc(-c2cc3ncc(C4CC4)c(-c4ccc(OC5CCOCC5)c(C#N)c4)c3o2)c(F)c1 [Compound 310, 4-[7-[3-cyano-4-(oxan-4-yloxy)phenyl]-6-cyclopropylfuro[3,2-b]pyridin-2-yl]-3-fluoro-N,N-dimethylbenzamide] | > 5 µM
7 | CN(CCO)C(=O)c1ccc(-c2cc3ncc(C4CC4)c(-c4ccc(NC5CCOCC5)c(C#N)c4)c3o2)c(F)c1 [Compound 311, 4-(7-(3-cyano-4-(tetrahydro-2H-pyran-4-ylamino)phenyl)-6-cyclopropylfuro[3,2-b]pyridin-2-yl)-3-fluoro-N-(2-hydroxyethyl)-N-methylbenzamide] | > 5 µM
8 | CN(CCO)C(=O)c1ccc(-c2cc3ncc(C4CC4)c(-c4ccc(OC5CCOCC5)c(C#N)c4)c3o2)c(F)c1 [Compound 312, 4-(7-(3-cyano-4-(tetrahydro-2H-pyran-4-yloxy)phenyl)-6-cyclopropylfuro[3,2-b]pyridin-2-yl)-3-fluoro-N-(2-hydroxyethyl)-N-methylbenzamide] | > 5 µM
9 | COc1cc(C(=O)N(C)C)cnc1-c1cc2ncc(C(C)C)c(-c3ccc(OC4CCOCC4)c(C#N)n3)c2o1 [Compound 331, 6-[7-[6-cyano-5-(oxan-4-yloxy)pyridin-2-yl]-6-(propan-2-yl)furo[3,2-b]pyridin-2-yl]-5-methoxy-N,N-dimethylpyridine-3-carboxamide hydrochloride] | > 5 µM
10 | COc1cc(C(=O)N(C)C)cnc1-c1cc2ncc(C(C)C)c(-c3ccc(OC4CCOCC4)c(C#N)c3)c2o1 [Compound 332, 6-[7-[3-cyano-4-(oxan-4-yloxy)phenyl]-6-(propan-2-yl)furo[3,2-b]pyridin-2-yl]-5-methoxy-N,N-dimethylpyridine-3-carboxamide] | > 5 µM
11 | COc1cc(C(=O)N(C)C)cnc1-c1cc2ncc(C(C)C)c(-c3ccc(NC4CCOCC4)c(C#N)c3)c2o1 [Compound 335, 6-(7-[3-cyano-4-[(oxan-4-yl)amino]phenyl]-6-(propan-2-yl)furo[3,2-b]pyridin-2-yl)-5-methoxy-N,N-dimethylpyridine-3-carboxamide hydrochloride] | > 5 µM
12 | COc1cc(C(=O)N(C)C)cnc1-c1cc2ncc(Cl)c(-c3ccc(NC4CCOCC4)c(C#N)c3)c2o1 [Compound 337, 6-(6-chloro-7-[3-cyano-4-[(oxan-4-yl)amino]phenyl]furo[3,2-b]pyridin-2-yl)-5-methoxy-N,N-dimethylpyridine-3-carboxamide] | > 5 µM
13 | COc1cc(C(=O)N(C)C)cnc1-c1cc2ncc(C3CC3)c(-c3ccc(NC4CCOCC4)c(C#N)n3)c2o1 [Compound 353, 6-(7-[6-cyano-5-[(oxan-4-yl)amino]pyridin-2-yl]-6-cyclopropylfuro[3,2-b]pyridin-2-yl)-5-methoxy-N,N-dimethylpyridine-3-carboxamide hydrochloride] | > 5 µM
14 | COc1cc(C(=O)N(C)CCO)cnc1-c1cc2ncc(C(C)C)c(-c3ccc(OC4CCOCC4)c(C#N)n3)c2o1 [Compound 359, 6-[7-[6-cyano-5-(oxan-4-yloxy)pyridin-2-yl]-6-(propan-2-yl)furo[3,2-b]pyridin-2-yl]-N-(2-hydroxyethyl)-5-methoxy-N-methylpyridine-3-carboxamide hydrochloride] | > 5 µM
15 | COc1cc(C(=O)N(C)C)cnc1-c1cc2ncc(C(C)C)c(-c3ccc(NC4CCOCC4)c(C#N)n3)c2o1 [Compound 361, 6-(7-[6-cyano-5-[(oxan-4-yl)amino]pyridin-2-yl]-6-(propan-2-yl)furo[3,2-b]pyridin-2-yl)-5-methoxy-N,N-dimethylpyridine-3-carboxamide] | > 5 µM
16 | COc1ccc(C#N)cc1-c1ccnc2cc(-c3ncc(C(=O)N(C)C)cc3OC)oc12 [Compound 490, 6-{7-[5-Cyano-2-methoxy-phenyl)-furo[3,2-b]pyridin-2-yl}-5-methoxy-N,N-dimethyl-nicotinamide] | > 5 µM
17 | COc1cc(C(=O)N(C)C)cnc1-c1cc2ncc(C3CC3)c(-c3ccc(NC4CCOCC4)c(C#N)c3)c2o1 [Compound 522, 6-(7-[3-cyano-4-[(oxan-4-yl)amino]phenyl]-6-cyclopropylfuro[3,2-b]pyridin-2-yl)-5-methoxy-N,N-dimethylpyridine-3-carboxamide] | > 5 µM

Target: T2, IKKε (Homo sapiens, UniProt Q14164)
T2 sequence (Q14164 1-716): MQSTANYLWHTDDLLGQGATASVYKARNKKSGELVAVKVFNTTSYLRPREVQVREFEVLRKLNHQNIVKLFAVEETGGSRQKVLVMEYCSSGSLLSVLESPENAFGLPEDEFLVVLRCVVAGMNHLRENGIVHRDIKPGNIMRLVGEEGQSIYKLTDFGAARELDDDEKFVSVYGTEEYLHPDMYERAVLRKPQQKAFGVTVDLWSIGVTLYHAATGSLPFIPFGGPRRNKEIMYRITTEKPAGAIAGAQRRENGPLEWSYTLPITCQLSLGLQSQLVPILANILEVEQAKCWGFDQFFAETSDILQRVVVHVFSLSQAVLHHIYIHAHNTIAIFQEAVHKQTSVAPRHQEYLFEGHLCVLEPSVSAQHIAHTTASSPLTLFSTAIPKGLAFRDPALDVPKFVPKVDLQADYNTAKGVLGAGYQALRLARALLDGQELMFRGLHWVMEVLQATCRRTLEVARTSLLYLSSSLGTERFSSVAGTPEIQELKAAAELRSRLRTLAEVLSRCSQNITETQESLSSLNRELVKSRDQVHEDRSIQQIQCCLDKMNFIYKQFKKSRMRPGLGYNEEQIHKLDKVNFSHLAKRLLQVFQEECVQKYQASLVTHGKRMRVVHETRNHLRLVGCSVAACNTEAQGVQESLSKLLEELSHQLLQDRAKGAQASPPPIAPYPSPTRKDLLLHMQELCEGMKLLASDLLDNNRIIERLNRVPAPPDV
Assay: IKKe Biochemical Assay
Conditions: read-out: IKKε IC50
Description: as §1, with “(Greiner” for “Greiner”
as §2, with “C.” for “C. in Heidolph incubator”, “buffer” for “buffer using multidrop dispenser”, “IKKε. job” for “TBK1.job”
as §3

Row | Compound | IC50
18 | CN(C)C(=O)c1ccc(-c2cc3nccc(-c4ccc(Oc5ccncc5)c(C#N)c4)c3o2)cc1 [Compound 200, 4-{7-[3-Cyano-4-(pyridin-4-yloxy)-phenyl]-furo[3,2-b]pyridin-2-yl}-N,N-dimethyl-benzamide] | > 5 µM
19 | COC(=O)c1ccc(-c2cc3nccc(-c4ccc(OC5CC6(COC6)C5)c(C#N)c4)c3o2)cc1 [Compound 204] | 0.1 to 1 µM
20 | COC(=O)c1ccc(-c2cc3nccc(-c4ccc(Oc5ccccc5F)c(C#N)c4)c3o2)cc1 [Compound 205] | > 5 µM
21 | COc1cc(C(=O)N(C)C)ccc1-c1cc2nccc(-c3ccc(OC4CCOCC4OCc4ccccc4)c(C#N)c3)c2o1 (stereo not drawn) [Compound 211] | 0.1 to 1 µM
